The test system of data set [1] is Blumeria graminis f. sp. tritici. The data set can be described thus: Test 12 - Control of powdery mildew on wheat, seed treatment. It is filed as in vivo. Particulars: single active, untreated 82% disease. The method, then:
Test 12—Control of Powdery Mildew on Wheat Caused by Blumeria graminis f. sp. tritici
Seeds of wheat were treated in a treater as standard equipment. The products and concentrations are listed below. At the same day the plants were seeded in pots. 14 days later at 19° C. and 70% humidity the plants were inoculated with spores of Blumeria graminis f. sp. tritici (=syn. Erysiphe garminis f. sp. tritici) by shaking heavily infestated stock plants over the treated pots. After cultivation in the greenhouse for 7 days at 22-26° C. and a relative humidity between 60 to 90% the extent of fungal attack on the leaves was visually assessed as % diseased leaf area.

The subject of the next data set is Rhizoctonia solani. The data set can be described thus: Test 10 - Control of Rhizoctonia solani, corn seed treatment, plant height. Particulars: single active compound, 14 days. It is filed as in vivo. The method, then: Test 10—Control of Rhizoctonia solani
The compounds were dissolved in Acetone. Seeds of com were treated in a treater as standard equipment. The products and concentrations are listed below. After the treatment the seeds were sown in pots, and rye seeds (infected with Rhizoctonia solani) were placed next to the seeds (1 seed per corn seed).
After cultivation in the greenhouse for 14 days at 20° C. and a relative humidity of 70% the plant height of the plants were measured.

The next data set relates to Puccinia recondita. The data set can be described thus: Test 11 - Control of brown rust on wheat, seed treatment. The format is in vivo. The following applies: single active, untreated 90% disease. The method, then: Test 11—Control of Brown Rust on Wheat Caused by Puadnia recondita
Seeds of wheat were treated in a treater as standard equipment. The products and concentrations are listed below. At the same day the plants were seeded in pots. 14 days later at 19° C. and 70% humidity the plants were inoculated with spores of Puccinia recondita. To ensure the success the artificial inoculation, the plants were transferred to a humid chamber without light and a relative humidity of 95 to 99% and 20 to 24° C. for 24 h. Then the trial plants were cultivated for 6 days in a greenhouse chamber at 20-24° C. and a relative humidity between 65 and 70%. The extent of fungal attack on the leaves was visually assessed as % diseased leaf area.

Another data set deals with Altemaria solani. Particulars: single active compound, 7 days after inoculation.
Data set [2] deals with Greenbug Aphid, Schizaphis graminum. The data set can be described thus: Test 13 - Activity against greenbug aphid, wheat seed treatment. It is filed as in vivo. The following applies: single active, aphids counted 4 DAI. As to the method:
Test 13—Activity Against Greenbug Aphid, Schizaphis graminum: Wheat seed treatment
Technical material was dissolved in acetone at sub-lethal doses. 50 μL of solution was added to a 20-ml scintillation vial, 15 wheat seeds were added, and the seeds were coated by vortexing the vial for 1 minute. The seeds were allowed to dry and planted later the same day. Seeds were planted individually in a moistened, fertilized soil mixture of 1:1 North Carolina loamy sand (Sandhill soil):play sand in 40.32 cm^2 pots. Pots were arranged in a randomized complete block design in the greenhouse and top-watered daily. Plant emergence and shoot phytotoxicity were evaluated 4, 7, and 14 days after treatment (DAT). At 14 DAT (true leaf stage), each plant was infested with 10 greenbug aphids (Schizaphis graminum) of mixed stages. Plants were maintained on light carts in a randomized complete block design and bottom-watered as needed. Twelve replicates (pots) were prepared for plant emergence and five replicates were prepared for infestation. Live aphids were counted 4 DAI and the mean percent population reduction relative to the solvent blank control was calculated.

Data set [3] deals with Rice Plant Hopper (Nilaparvata lugens). The data set can be described thus: B.7 Rice plant hopper test on sprayed rice seedlings. It is filed as in vivo. Particulars: 500 ppm, after 72 hours. The method, then:
B.7 Rice Plant Hopper (Nilaparvata lugens)
Rice seedlings were cleaned and washed 24 hours before spraying. The active compounds were formulated in 50:50 acetone: water and 0.1% vol/vol surfactant (EL 620) was added. Potted rice seedlings were sprayed with 5 ml test solution, air dried, placed in cages and inoculated with 10 adults. Treated rice plants were kept at 28-29° C. and relative humidity of 50-60%. Percent mortality was recorded after 72 hours.

The subject of data set [4] is Rice Green Leafhopper (Nephotettix virescens). The data set can be described thus: B.9 Rice green leafhopper test on sprayed rice seedlings. It is filed as in vivo. Particulars: 500 ppm, after 72 hours. As to the method:
B.9 Rice Green Leafhopper (Nephotettix virescens)
Rice seedlings were cleaned and washed 24 hours before spraying. The active compounds were formulated in 50:50 acetone: water, and 0.1% vol/vol surfactant (EL 620) was added. Potted rice seedlings were sprayed with 5 ml test solution, air dried, placed in cages and inoculated with 10 adults. Treated rice plants were kept at 28-29° C. and relative humidity of 50-60%. Percent mortality was recorded after 72 hours.

Read-outs that look alike come from different tables or passages of the source.

For `CC1(C)CC/C(=C\c2ccc(Cl)cc2)C1(O)Cn1cncn1` (stereo not shown) [Triticonazol, (5E)-5-[(4-chlorophenyl)methylene]-2,2-dimethyl-1-(1H-1,2,4-triazol-1-ylmethyl)cyclopentanol, reference compound], the entries for the “Observed efficacy (%)” value (in data set [1] (16 g a.i./100 kg seeds); in the data set on Rhizoctonia solani (16 g a.i./100 kg seeds); in the data set on Puccinia recondita (16 g a.i./100 kg seeds)) were 60%, 20% and 49%, respectively. In the data set with Altemaria solani (0.063 ppm), this compound gave an Observed efficacy of 27%.

In the case of `COCC(=O)N(c1c(C)cccc1C)[C@H](C)C(=O)OC` [Mefenoxam, reference compound], the “Observed efficacy (%)” value in data set [1] (4 g a.i./100 kg seeds) amounted to 0%; in the data set on Rhizoctonia solani (63 g a.i./100 kg seeds) it was 0%; in data set [2] (table with fungicides F.1 to F.11, 15 g a.i./100 kg seeds) it was 6%.

With `CCN(C(=O)c1cnn(C(C)C(F)F)c1C)c1ccnnc1` (stereo not shown) [Compound I-680], the “Observed efficacy (%)” value in data set [1] (250 g a.i./100 kg seeds) turned out to be 15%; in the data set with Rhizoctonia solani (63 g a.i./100 kg seeds), 0%; in the data set on Puccinia recondita (250 g a.i./100 kg seeds), 0%; in data set [2] (table with fungicides F.1 to F.11, 2.9 g a.i./100 kg seeds) it was 7%; in data set [2] (table with insecticides A.1 to A.17, 2.9 g a.i./100 kg seeds) it was 23%. The same compound showed an Observed efficacy in the data set with Altemaria solani (63 ppm) of 3%.

As for `c1ccc2[nH]c(-c3cscn3)nc2c1` [Thiabendazol], the “Observed efficacy (%)” value in data set [1] (250 g a.i./100 kg seeds) stood at 2%.

In the case of `CCN(C(=O)c1cnn(C(C)C2(C#N)CC2)c1C)c1ccnnc1` (stereo not shown) [Compound I-698], the “Observed efficacy (%)” value in data set [1] (250 g a.i./100 kg seeds) is 15%; in the data set with Rhizoctonia solani (250 g a.i./100 kg seeds), 3%; in the data set on Puccinia recondita (63 g a.i./100 kg seeds), 4%; in data set [2] (table with fungicides F.1 to F.11, 150 g a.i./100 kg seeds) it was 51%; in data set [2] (table with insecticides A.1 to A.17, 150 g a.i./100 kg seeds), 74%. Moreover, the results for the Observed efficacy with Altemaria solani (1 ppm) and in the data set on Altemaria solani (63 ppm) were 7% and 3%, respectively.

With `CCN(C(=O)c1cnn(C2CC3(C2)OCCO3)c1C)c1ccnnc1` [Compound C-15], in data set [3], the “mortality in comparison with untreated controls” value was determined as 75%.

As to `N#Cc1c[nH]cc1-c1cccc2c1OC(F)(F)O2` [Fludioxonil, 4-(2,2-difluorobenzo[1,3]dioxol-4-yl)-1H-pyrrole-3-carbonitrile, reference compound], the Observed efficacy in the data set on Altemaria solani (0.063 ppm) was 26%.

As for `Cn1cc(C(=O)Nc2ccccc2-c2cc(F)c(F)c(F)c2)c(C(F)F)n1` [Fluxapyroxad, reference compound], the “Observed efficacy (%)” value is given as 74% in the data set with Rhizoctonia solani (4 g a.i./100 kg seeds); 16% with Puccinia recondita (1 g a.i./100 kg seeds); 0% in data set [2] (table with fungicides F.1 to F.11, 20 g a.i./100 kg seeds).

Consider `CCN(C(=O)c1cnn(C(C)C(C)C)c1C)c1ccnnc1` (stereo not shown) [Compound I-674], for which the “Observed efficacy (%)” value in data set [1] (4 g a.i./100 kg seeds) stood at 9%; in data set [1] (250 g a.i./100 kg seeds), 21%; in the data set on Rhizoctonia solani (63 g a.i./100 kg seeds) it was 5%; in the data set on Puccinia recondita (250 g a.i./100 kg seeds) it was 0%; in data set [2] (table with fungicides F.1 to F.11, 33.7 g a.i./100 kg seeds) it was 21%; in data set [2] (table with insecticides A.1 to A.17, 33.7 g a.i./100 kg seeds), 28%. The compound further registered an Observed efficacy in the data set on Altemaria solani (63 ppm) of 1%.

With `COC(=O)N(OC)c1ccccc1COc1ccn(-c2ccc(Cl)cc2)n1` [Pyraclostrobin, methyl N-{2-[1-(4-chlorophenyl)-1H-pyrazol-3-yloxymethyl]phenyl}(N-methoxy)carbamate, reference compound], the “Observed efficacy (%)” value in the data set on Rhizoctonia solani (63 g a.i./100 kg seeds) is 49%. Further, the Observed efficacy in the data set on Altemaria solani (0.016 ppm) came out at 16%.

Consider `CNC(=O)c1cc(Cl)cc(C)c1NC(=O)c1cc(Br)nn1-c1ncccc1Cl` [chloranthraniliprole], for which the “Observed efficacy (%)” value in data set [2] (table with insecticides A.1 to A.17, 75 g a.i./100 kg seeds) stood at 30%.

In the case of `CCN(C(=O)c1cnn(C(C)C2CC23CC3)c1C)c1ccnnc1` (stereo not shown) [Compound C-26], in data set [4], the “mortality in comparison with untreated controls” value is listed as “at least 75%”.

Source of the values: patent publication US9474277B2, “Pyrazole compound and pesticidal mixtures comprising a pyrazole compound” (BASF SE, priority 2012, dated 2016).
